The assay concerns target microorganisms. Nature of the assay: Screen of synthesized peptides for binding to target microorganisms (targeting peptides, Tables 2 and 3). Particulars: microorganism(s) the targeting peptide was identified as binding to (Table 3). The procedure: Once noted, these peptides were batch synthesized on a multiplex peptide synthesizer, yielding 5-10 mg of each peptide that could readily be screened for biological activity (e.g., binding activity and/or antimicrobial activity.
Other suitable targeting peptides include the peptides that have been identified as binding to particular target organisms as shown in Table 3 and/or Table 4.

Entries after “also recorded” stand apart in the source; their conditions may differ.

Regarding “1T-1 (YVNYNQSFNSGW; synthetic novel tartgeting peptide IT-1)”, the “Target(s)” value is “S. mutans”.

Regarding “1T-2 (NIFEYFLE; synthetic novel tartgeting peptide IT-2)”, the “Target(s)” value is recorded as “S. gordonii; also recorded: S. mitis; also recorded: S. oralis; also recorded: V. atypica; also recorded: Lactobacillus casei; also recorded: Saliva-derived biofilms; also recorded: S. mutans; also recorded: S. sanguinis”.

For “1T-3 (VLGIAGGLDAYGELVGGN; synthetic novel tartgeting peptide IT-3)”, the “Target(s)” value is reported as “S. mutans; also recorded: S. gordonii”.

“1T-4 (LDAYGELVGGN; synthetic novel tartgeting peptide IT-4)”: the “Target(s)” value was “S. mutans; also recorded: S. gordonii; also recorded: S. sanguinis; also recorded: S. oralis; also recorded: V. atypica; also recorded: L. casei”.

Regarding “1T-5 (LGPIAGAAIGWDLGAISGAGLGWANFCQ; synthetic novel tartgeting peptide IT-5)”, the “Target(s)” value is “S. mutans; also recorded: S. sanguinis”.

Consider “1T-6 (KFINGVLSQFVLERK; synthetic novel tartgeting peptide IT-6)”, for which the “Target(s)” value is “S. mutans”.

With “1T-7 (SQRIIEPVKSPQPYPGFSVS; synthetic novel tartgeting peptide IT-7)”, the “Target(s)” value is listed as “Myxococcus xanthus”.

On to “1T-8 (FSVAACGEQRAVTFVLLIEDLI; synthetic novel tartgeting peptide IT-8)”, for which the “Target(s)” value is given as “M. xanthus”.

As to “1T-9 (WAWAESPRCVSTRSNIHALAFRVEVAALT; synthetic novel tartgeting peptide IT-9)”, the “Target(s)” value is “M. xanthus”.

On to “1T-10 (SPAGLPGDGDEA; synthetic novel tartgeting peptide IT-10)”, for which the “Target(s)” value is recorded as “M. xanthus”.

“1T-11 (RISE; synthetic novel tartgeting peptide IT-11)”: the “Target(s)” value was “S. mutans; also recorded: S. epidermidis; also recorded: P. aeruginosa”.

As for “1T-12 (FGNIFKGLKDVIETIVKWTAAK; synthetic novel tartgeting peptide IT-12)”, the “Target(s)” value was “Corynebacterium; also recorded: xerosis; also recorded: striatum; also recorded: S. epidermidis; also recorded: S. mutans”.

For the substance “1T-13 (FRSPCINNNSLQPPGVYPAR; synthetic novel tartgeting peptide IT-13)”, the “Target(s)” value was “S. aureus; also recorded: S. epidermidis; also recorded: P. aeruginosa”.

For “1T-14 (ALAGLAGLISGK; synthetic novel tartgeting peptide IT-14)”, the “Target(s)” value was “S. mutans; also recorded: S. aureus; also recorded: S. epidermidis; also recorded: C. xerosis”.

Take “1T-15 (DVILRVEAQ; synthetic novel tartgeting peptide IT-15)”: the “Target(s)” value is listed as “S. mutans”.

Take “1T-16 (IDMR; synthetic novel tartgeting peptide IT-16)”: the “Target(s)” value is reported as “P. aeruginosa”.

As for “1T-17 (NNAIVYIS; synthetic novel tartgeting peptide IT-17)”, the “Target(s)” value is reported as “S. mutans”.

For the substance “1T-18 (YSKTLHFAD; synthetic novel tartgeting peptide IT-18)”, the “Target(s)” value is on record as “S. aureus; also recorded: S. epidermidis; also recorded: C. striatum; also recorded: P. aeruginosa”.

Turning to “1T-19 (PGAFRNPQMPRG; synthetic novel tartgeting peptide IT-19)”, the “Target(s)” value was “S. aureus; also recorded: S. epidermidis; also recorded: P. aeruginosa”.

“1T-20 (PALVDLSNKEAVWAVLDDHS; synthetic novel tartgeting peptide IT-20)”: the “Target(s)” value is “S. mutans; also recorded: P. aeruginosa”.

For the substance “1T-21 (YVEEAVRAALKKEARISTEDTPVNLPSFDC; synthetic novel tartgeting peptide IT-21)”, the “Target(s)” value is given as “S. mutans; also recorded: P. aeruginosa”.

Consider “1T-22 (VPLDDGTRRPEVARNRDKDRED; synthetic novel tartgeting peptide IT-22)”, for which the “Target(s)” value is given as “S. epidermidis; also recorded: P. aeruginosa”.

Consider “1T-23 (PALVDLSNKEAVWAVLDDHS; synthetic novel tartgeting peptide IT-23)”, for which the “Target(s)” value was “S. mutans; also recorded: P. aeruginosa”.

Turning to “1T-24 (EEAEEKLAEVSQAVKRLVR; synthetic novel tartgeting peptide IT-24)”, the “Target(s)” value is “P. aeruginosa”.

“1T-25 (VGLDVSVLVLFFGLQLLSVLLGAMIR; synthetic novel tartgeting peptide IT-25)”: the “Target(s)” value is reported as “S. aureus; also recorded: S. epidermidis; also recorded: C. xerosis; also recorded: C. striatum; also recorded: P. aeruginosa”.

For the substance “1T-26 (LTILPTTFFAIIVPILAVAFIAYSGFKIKGIVEHKDQW; synthetic novel tartgeting peptide IT-26)”, the “Target(s)” value is given as “jeikeium; also recorded: C. xerosis; also recorded: C. striatum; also recorded: P. aeruginosa; also recorded: S. mutans; also recorded: S. aureus; also recorded: S. epidermidis; also recorded: Corynebacterium”.

Consider “1T-27 (ALFVSLEQFLVVVAKSVFALCHSGTLS; synthetic novel tartgeting peptide IT-27)”, for which the “Target(s)” value is listed as “S. mutans; also recorded: S. aureus; also recorded: S. epidermidis; also recorded: C. jeikeium; also recorded: C. xerosis; also recorded: C. striatum; also recorded: P. aeruginosa”.

Regarding “1T-28 (VSRDEAMEFIDREWTTLQPAGKSHA; synthetic novel tartgeting peptide IT-28)”, the “Target(s)” value is given as “P. aeruginosa”.

Consider “1T-29 (GSVIKKRRKRMSKKKHRKMLRRTRVQRRKLGK; synthetic novel tartgeting peptide IT-29)”, for which the “Target(s)” value was “S. mutans; also recorded: S. aureus; also recorded: S. epidermidis; also recorded: C. jeikeium; also recorded: C. xerosis; also recorded: C. striatum; also recorded: P. aeruginosa”.

For the substance “1T-30 (GKAKPYQVRQVLRAVDKLETRRKKGGR; synthetic novel tartgeting peptide IT-30)”, the “Target(s)” value is on record as “S. aureus; also recorded: S. epidermidis; also recorded: C. xerosis; also recorded: C. striatum; also recorded: P. aeruginosa”.

In the case of “1T-31 (NATGTDIGEVTLTLGRFS; synthetic novel tartgeting peptide IT-31)”, the “Target(s)” value is reported as “S. mutans; also recorded: P. aeruginosa”.

Regarding “1T-32 (VSFLAGWLCLGLAAWRLGNA; synthetic novel tartgeting peptide IT-32)”, the “Target(s)” value is reported as “S. mutans”.

Consider “1T-33 (VRTLTILVIFIFNYLKSISYKLKQPFENNLAQSMISI; synthetic novel tartgeting peptide IT-33)”, for which the “Target(s)” value is “S. aureus; also recorded: S. epidermidis; also recorded: C. jeikeium; also recorded: C. xerosis; also recorded: C. striatum; also recorded: P. aeruginosa”.

Take “1T-34 (AFWLNILLTLLGYIPGIVHAVYIIAKR; synthetic novel tartgeting peptide IT-34)”: the “Target(s)” value is on record as “S. aureus; also recorded: S. epidermidis; also recorded: C. jeikeium; also recorded: C. xerosis; also recorded: C. striatum; also recorded: P. aeruginosa”.

Consider “1T-35 (EICLTLVFPIRGSYSEAAKFPVPIHIVEDGTVELPK; synthetic novel tartgeting peptide IT-35)”, for which the “Target(s)” value is “P. aeruginosa”.

With “1T-36 (VYRHLRFIDGKLVEIRLERK; synthetic novel tartgeting peptide IT-36)”, the “Target(s)” value is “S. aureus; also recorded: S. epidermidis; also recorded: C. jeikeium; also recorded: C. xerosis; also recorded: C. striatum; also recorded: P. aeruginosa”.

The record behind these values is patent publication US8389679B2, “Targeted antimicrobial moieties” (priority 2009, dated 2013).
